Experimental data from publication PMC5652740, “Inhibition of HIV-1 infection in humanized mice and metabolic stability of protein phosphatase-1-targeting small molecule 1E7-03” (Oncotarget, 2017).

What was measured:
[1] = Stability of 1E7-03 in cell culture media and PBS; format: physicochemical
Protocol: CEM T cells were seeded in 24-well plates (200,000 cells/well). On the next day cells were treated with 10 μM 1E7-03. Media (100 μl) was collected at different time points during 48 hrs and total protein was precipitated by 400 μl of cold acetone and centrifuged at 13,000 × g for 5 min. The supernatant was collected and evaporated to dryness using a SpeedVac concentrator. The dry pellet was reconstituted in 100 μl of acetonitrile for LC/FT-MS analysis. In addition, 1E7-03 (10 μM) was incubated at 37°C in serum-free media and complete media without cell treatment. Media of 100 μl was collected after 24 hrs of incubation. The stabilities of 1E7-03 (10 μM) at phosphate buffered saline (PBS) and PBS with the addition of 10% bovine serum albumin were also investigated at 37°C incubation. Samples (100 μl) were collected at different time points up to 24 hrs. All samples were prepared by the same above-mentioned procedure for LC/FT-MS analysis.

HIV-1 integration = assay: HIV-1 integration, Alu-Gag real-time PCR in CEM T cells; format: cell-based; conditions: 10 μM, DNA 6 hrs post infection, in words
Protocol: To assay HIV-1 integration, CEM T cells were infected with HIV-1-LUC-G virus and treated with 10 μM 1E7-03 or DMSO. Total DNA was extracted from cells using lysis buffer (10 mM Tris-HCl pH 8.0, 10 mM EDTA, 5 mM NaCl, 200 μg/ml proteinase K). The cells were lysed for 20-30 min at room temperature and proteinase K was inactivated by heating to 95°C for 5 min. For the real-time PCR analysis, 100 ng DNA was amplified using Roche Light Cycler 480 (Roche Diagnostics) and SYBR Green1 Master mix (Roche Diagnostics). PCR was carried with initial preincubation for 5 min at 45°C and then for 3 in at 95°C followed by 45 cycles of denaturation at 95°C for 15 sec, annealing and extension at 60°C for 45 sec, and final extension at 72°C for 10 sec. Integrated HIV-1 DNA was amplified using the following primers: Alu forward 5'-[…]-3', and Gag reverse 5'-[…]-3'.

CCNC(=O)NC(=O)C(C)OC(=O)c1c2c(nc3ccccc13)/C(=C/c1ccc(OC)c(OC)c1)CC2 (centres unmarked) [1E7-03]
Peak Area (%), Complete media ([1]; 10 μM 1E7-03 in media with 10% FBS, 37°C, 24 hrs, 1E7-03 remaining and DPs formed): 98.6% | Peak Area (%), FBS free media ([1]; 10 μM 1E7-03 in serum free media, 37°C, 24 hrs, 1E7-03 remaining and DPs formed): 7% | stability in complete media ([1]; 10 μM, 37°C, 48 hrs, in words): remained stable and did not undergo degradation | remaining at 4 h, 10 µM ([1]; PBS with 10% bovine serum albumin, 4 hrs, read-out: % remaining intact in PBS with 10% BSA): 75% | remaining at 24 h, 10 µM ([1]; PBS with 10% bovine serum albumin, 24 hrs, read-out: % remaining in PBS with 10% BSA): > 50% | % of compound degraded in PBS ([1]; PBS, 37°C, 4 hrs): over 80% | remaining at 48 h, 10 µM ([1]; human, culture media of CEM T cells, 48 hrs of incubation, read-out: % remained intact in cell culture media): > 90% | effect on HIV-1 integration (HIV-1 integration): did not show any significant effect
